Experimental data as given in patent US12036222B2, “Methods of treating cancers overexpressing CARM1 with EZH2 inhibitors and a PARP inhibitor” (The Wistar Institut of Anatomy and Biology, priority 2018, dated 2024).
Entries after “also recorded” stand apart in the source; their conditions may differ.

Tested on: A1847 parental and CARM1 knockout cells
Test: Epigenetic targeting small molecule set screen (14-day colony formation)
Format: cell-based, human
Settings: 14 days, normalized to vehicle
Protocol: FIG. 26 illustrates that CARM1-expressing cells are selectively sensitized to EZH2 inhibitors. Equal number of parental control or CARM1 knockout […] cells were plated and treated with each of the 23 individual epigenetic inhibitors for 14 days. The media with the inhibitors was refreshed every 3 days. Cell growth was quantified as integrated density using NIH Image J software. Quantification of the average integrated density graphed as a scatter plot. The X-axis indicates the relative growth of treated CARM1 high parental […] cells compared with DMSO vehicle controls. Y-axis indicates the relative growth of treated CARM1 knockout […] cells compared with DMSO vehicle controls. n=4; and error bars represents SEM. FIG. 27 illustrates a table of EZH2 inhibitors that are selective against CARM1 expression. CARM1-high parental controls and CARM1 knockout […] cells were treated with the indicated concentration of the small molecules in a 14-day colony formation assay. Integrated density for each well was calculated using NIH Image J software. The relative growth of the indicated cells was determined by normalizing to the vehicle control treated cells. n=4 and p-value was calculated using a two-tailed t-test. […] parental and CARM1 knockout cells were plated in 24-well plates and treated with 24 epigenetic compounds. Cell medium was changed every three days with appropriate drug doses for 14 days or until control wells became confluent. Colonies were washed twice with PBS and fixed with 10% methanol and 10% acetic acid in distilled water. Fixed colonies were stained with 0.005% crystal violet. Integrated density was measured using NIH ImageJ software as a surrogate for cell growth.

Structure (SMILES) | selective growth suppression of CARM1-expressing vs CARM1 KO cells
CCCc1cc(C)[nH]c(=O)c1CNC(=O)c1cc(-c2ccc(N3CCN(C(C)C)CC3)nc2)cc2c1cnn2C(C)C [UNC1999, 1-isopropyl-6-(6-(4-isopropylpiperazin-1-yl)pyridin-3-yl)-N-((6-methyl-2-oxo-4-propyl-1,2-dihydropyridin-3-yl)methyl)-1H-indazole-4-carboxamide] | showed selectivity against CARM1-expressing cells; also recorded: selectively sensitive
CC(=O)Nc1ccc(C(=O)Nc2ccccc2N)cc1 [CI994] | equally effective in suppressing the growth of both CARM-expressing and KO cells; also recorded: showed no difference between parental and CARM1 knockout cells
